What was measured:
Format in all cases: in vivo
hybrid corn = test: Corn trial Arcadia, IA 2015, yield; details: field; spray at V7; GA3 120 mg/liter, GB 10000 mg/liter, (S)-ABA 9 mg/liter
Source text: In a corn trial conducted in Arcadia, Iowa, hybrid corn was sown Apr. 30, 2015 and sprayed at V7 with solutions containing a non-ionic surfactant (0.25%, v/v) at 15 gallons of spray volume.

corn plants = test: Greenhouse study: growth of corn after V3 spray with GA3 or GB, nine days; details: non-stressed greenhouse; spray at V3; GA3 120 mg/liter, GB 3000 mg/liter; n = 7
Protocol: (§1) In several of the following examples, corn was grown in greenhouse conditions, which are defined as follows. Seeds of a commercial hybrid variety were sown in Pro-Mix® BX (Pro-Mix is a registered trademark of Premier Horticulture Ltd.) with the addition of Osmocote (14-14-14) and gypsum in three-liter pots. Greenhouses were kept at 25±3° C. under a 16:8 hour photoperiod, with illumination at canopy level of ˜250 μmoles m^−2s^−1. Corn was typically fertigated with Peters 21-5-20+micronutrients, calcium ammonium nitrate and magnesium sulfate. Typical growth rates for corn under these conditions ranged from 4-5 cm/day.
(§2) In most greenhouse studies, spray applications were made. These applications were made in a track sprayer outfitted with a 4001E Teejet® nozzle (Teejet is available from and a registered trademark of Spraying Systems Co., Glendale Heights, Ill., USA) and applied at 40 psi. Although application volumes did vary between some studies, generally, 30 gallons/acre of spray solution was applied. Following spray applications, plants were returned to the greenhouse. Typically, experiments were blocked according to plant size, and a randomized complete block design (RCB) was used.
In a greenhouse study conducted in Long Grove, Ill., corn plants were sprayed at V3 stage with solutions containing a non-ionic surfactant (0.25%, v/v) at 30 gallons of spray solution/acre and growth was followed for nine days.
Synergy was determined using the following formula, in which a synergy factor is calculated by the Abbott method: % Cexp=A+B−(AB/100), here % Cexp is the expected efficacy and “in which A and B are the increase in growth (or resistance to stress) levels given by the single [plant growth regulators]. If the ratio between the experimentally observed efficacy of the mixture Cobs and the expected efficacy of the mixture is greater than 1, synergistic interactions are present in the mixture” (Gisi, Synergistic Interaction of Fungicides in Mixtures, The American Phytopathological Society, 86:11, 1273-1279, 1996).
Based on a conservative approach, synergy was determined to be present at ratios of ≥1.10. When grown under non-stressed conditions, GA3 growth was synergized by the addition of 3,000 mg/liter glycine betaine (“GB”), with a synergy factor of 1.65 for growth and 1.68 for growth rate while dry weight/plant was not synergistic with a synergy factor of 0.95.

corn [1] = test: Field study Woodstock, Ill. 2014, corn growth
Protocol: A field study was conducted at Woodstock, Ill. in 2014. Seeds of a central corn belt hybrid with 111 days to maturity were sown on May 20, 2014. Plants were sprayed at V4 with solutions containing a non-ionic surfactant (0.25%, v/v) at 15 gallons of spray solution/acre. Growth was followed by measuring shoot height in centimeters for 60 plants in each replicate at 7 and 14 days post spraying.

corn [2] = test: Field study Woodstock, IL 2015, height, ear counts and yield
Protocol: A field study was conducted at Woodstock, Ill. Seeds of a central corn belt variety with 103 days to maturity were sown and plants were sprayed at V5 with solutions containing a non-ionic surfactant (0.25%, v/v) at 15 gallons of spray solution/acre. Growth was followed by measuring shoot heights in centimeters 50 plants in each replicate at 7 and 13 days post-spraying. The number of kernels per kernel-row (average kernel number) as well as the number of kernel-rows (average row number) per ear was counted for 50 plants in each replicate 7 days before harvest. The harvest grain yield was corrected to 15% moisture.

greenhouse-grown maize = test: Leaf chlorophyll by SPAD meter, GA3 dose +/- GB; details: without or with GB 10000 mg/liter
Protocol: In the same study, leaf chlorophyll was monitored by measurements with a SPAD meter (Minolta Model 502; Ramsey, N.J.). In this study, the chlorophyll level in the most recently fully-expanded leaf was measured at five different points and the results averaged.

corn [3] = test: Greenhouse study: Gibberellins, (S)-ABA and Glycine betaine on corn growth; details: GA3 or GA4 120 mg/liter, GB 10000 mg/liter, (S)-ABA 8.8 mg/liter
Protocol: as §1, §2
When gibberellins are combined with specific ratios of (S)-(+)-abscisic acid (“(S)-ABA”), a surprising enhancement of corn growth after application is often observed. The addition of GB to gibberellin+(S)-ABA spray combinations further increases the growth-promoting activity of the mixtures, as is shown in Table 6.

[4] = field, spray at V4, GA3 120 mg/liter, GB 10,000 mg/liter
[5] = field, spray at V5, GA3 120 mg/liter, GB 10000 mg/liter, (S)-ABA 9 mg/liter

Structure (SMILES): C=C1C[C@]23C[C@@]1(O)CC[C@H]2[C@@]12C=C[C@H](O)[C@@](C)(C(=O)O1)[C@H]2[C@@H]3C(=O)O [GA3, gibberellic acid]
- Yield (hybrid corn): 185.8 bu/acre
- Dry Weight/Plant (corn plants): 2.92 g
- Growth Rate (corn plants): 4.76 cm/day
- Growth over 9 days (corn plants): 42.9 cm
- Growth Rate from 7-14 days (corn [1]; [4]): 4.89 cm/day
- Height at 7 days post spray (corn [1]; [4]): 68.2 centimeters
- Height at 14 days post spray (corn [1]; [4]): 102.4 centimeters
- growth increase over the control plants (surfactant alone) (corn [1]; one week after treatment application): 6.9%
- Average row number per ear (corn [2]; counted 7 days before harvest): 16.8
- Height at 7 days post spray (corn [2]; [5]): 69.6 cm
- Height at 13 days post spray (corn [2]; [5]): 88.6 cm
- Yield (corn [2]; grain yield corrected to 15% moisture): 222.8 bu/acre
- Chlorophyll (SPAD reading) 14 days (greenhouse-grown maize; GA3 30 mg/liter): 33.1 SPAD reading
- Chlorophyll (SPAD reading) 14 days (greenhouse-grown maize; GA3 60 mg/liter): 32.9 SPAD reading
- Chlorophyll (SPAD reading) 14 days (greenhouse-grown maize; GA3 120 mg/liter): 31.6 SPAD reading
- Chlorophyll (SPAD reading) 14 days (greenhouse-grown maize; GA3 240 mg/liter): 31.1 SPAD reading
- 7 days Change in Height (corn [3]): 32.5 cm
- 14 days Change in Height (corn [3]): 62.8 cm
- Dry Weight (corn [3]): 8.1 g

From US10058097B2, “Methods to increase corn productivity” (Valent BioSciences Corporation, priority 2016, dated 2018)
